Key:
[1] = target: T1, ABL1(Y253F)-phosphorylated (Homo sapiens, UniProt P00519, Y253F); test: KINOMEscan binding; details: read-out: Percent Control
T1 construct: purchased Eurofins DiscoverX KINOMEscan

PRKCI = target: T2, PRKCI (Homo sapiens, UniProt P41743); test: KINOMEscan binding; details: read-out: Percent Control
T2 construct: purchased Eurofins DiscoverX KINOMEscan

KIT-autoinhibited = target: T3, KIT-autoinhibited (Homo sapiens, UniProt P10721); test: KINOMEscan binding; details: read-out: Percent Control
T3 construct: purchased Eurofins DiscoverX KINOMEscan

ACVR2A = target: T4, ACVR2A (Homo sapiens, UniProt P27037); test: KINOMEscan binding; details: read-out: Percent Control
T4 construct: purchased Eurofins DiscoverX KINOMEscan

NIM1 = target: T5, NIM1 (Homo sapiens, UniProt Q8IY84); test: KINOMEscan binding; details: read-out: Percent Control
T5 construct: purchased Eurofins DiscoverX KINOMEscan

MTOR = target: T6, MTOR (Homo sapiens, UniProt P42345); test: KINOMEscan binding; details: read-out: Percent Control
T6 construct: purchased Eurofins DiscoverX KINOMEscan

PAK3 = target: T7, PAK3 (Homo sapiens, UniProt O75914); test: KINOMEscan binding; details: read-out: Percent Control
T7 construct: purchased Eurofins DiscoverX KINOMEscan

EPHA1 = target: T8, EPHA1 (Homo sapiens, UniProt P21709); test: KINOMEscan binding; details: read-out: Percent Control
T8 construct: purchased Eurofins DiscoverX KINOMEscan

WNK3 = target: T9, WNK3 (Homo sapiens, UniProt Q9BYP7); test: KINOMEscan binding; details: read-out: Percent Control
T9 construct: purchased Eurofins DiscoverX KINOMEscan

YSK1 = target: T10, YSK1 (Homo sapiens, UniProt O00506); test: KINOMEscan binding; details: read-out: Percent Control
T10 construct: purchased Eurofins DiscoverX KINOMEscan

EPHB2 = target: T11, EPHB2 (Homo sapiens, UniProt P29323); test: KINOMEscan binding; details: read-out: Percent Control
T11 construct: purchased Eurofins DiscoverX KINOMEscan

FGR = target: T12, FGR (Homo sapiens, UniProt P09769); test: KINOMEscan binding; details: read-out: Percent Control
T12 construct: purchased Eurofins DiscoverX KINOMEscan

PIK4CB = target: T13, PIK4CB (Homo sapiens, UniProt Q9UBF8); test: KINOMEscan binding; details: read-out: Percent Control
T13 construct: purchased Eurofins DiscoverX KINOMEscan

AMPK-alpha1 = target: T14, AMPK-alpha1 (Homo sapiens, UniProt Q13131); test: KINOMEscan binding; details: read-out: Percent Control
T14 construct: purchased Eurofins DiscoverX KINOMEscan

BMPR1A = target: T15, BMPR1A (Homo sapiens, UniProt P36894); test: KINOMEscan binding; details: read-out: Percent Control
T15 construct: purchased Eurofins DiscoverX KINOMEscan

ULK3 = target: T16, ULK3 (Homo sapiens, UniProt Q6PHR2); test: KINOMEscan binding; details: read-out: Percent Control
T16 construct: purchased Eurofins DiscoverX KINOMEscan

VPS34 = target: T17, VPS34 (Homo sapiens, UniProt Q8NEB9); test: KINOMEscan binding; details: read-out: Percent Control
T17 construct: purchased Eurofins DiscoverX KINOMEscan

CASK = target: T18, CASK (Homo sapiens, UniProt O14936); test: KINOMEscan binding; details: read-out: Percent Control
T18 construct: purchased Eurofins DiscoverX KINOMEscan

AURKB = target: T19, AURKB (Homo sapiens, UniProt Q96GD4); test: KINOMEscan binding; details: read-out: Percent Control
T19 construct: purchased Eurofins DiscoverX KINOMEscan

KIT(V559D) = target: T20, KIT(V559D) (Homo sapiens, UniProt P10721, V559D); test: KINOMEscan binding; details: read-out: Percent Control
T20 construct: purchased Eurofins DiscoverX KINOMEscan

HPK1 = target: T21, HPK1 (Homo sapiens, UniProt Q92918); test: KINOMEscan binding; details: read-out: Percent Control
T21 construct: purchased Eurofins DiscoverX KINOMEscan

HIPK3 = target: T22, HIPK3 (Homo sapiens, UniProt Q9H422); test: KINOMEscan binding; details: read-out: Percent Control
T22 construct: purchased Eurofins DiscoverX KINOMEscan

DMPK2 = target: T23, DMPK2 (Homo sapiens, UniProt Q6DT37); test: KINOMEscan binding; details: read-out: Percent Control
T23 construct: purchased Eurofins DiscoverX KINOMEscan

RIPK5 = target: T24, RIPK5 (Homo sapiens, UniProt Q6XUX3); test: KINOMEscan binding; details: read-out: Percent Control
T24 construct: purchased Eurofins DiscoverX KINOMEscan

BRAF = target: T25, BRAF (Homo sapiens, UniProt P15056); test: KINOMEscan binding; details: read-out: Percent Control
T25 construct: purchased Eurofins DiscoverX KINOMEscan

CAMKK2 = target: T26, CAMKK2 (Homo sapiens, UniProt Q96RR4); test: KINOMEscan binding; details: read-out: Percent Control
T26 construct: purchased Eurofins DiscoverX KINOMEscan

PLK3 = target: T27, PLK3 (Homo sapiens, UniProt Q9H4B4); test: KINOMEscan binding; details: read-out: Percent Control
T27 construct: purchased Eurofins DiscoverX KINOMEscan

PHKG1 = target: T28, PHKG1 (Homo sapiens, UniProt Q16816); test: KINOMEscan binding; details: read-out: Percent Control
T28 construct: purchased Eurofins DiscoverX KINOMEscan

LATS2 = target: T29, LATS2 (Homo sapiens, UniProt Q9NRM7); test: KINOMEscan binding; details: read-out: Percent Control
T29 construct: purchased Eurofins DiscoverX KINOMEscan

[2] = tested on: Pparg and Cebpa genes in 3T3-L1 cells; test: qRT-PCR of adipogenic genes during differentiation; type: cell-based; details: 3T3-L1 during differentiation; KD025 5 μM, CX-4945 10 μM, Y-27632 10 μM
Method: The preadipocyte 3T3-L1 cell line was kindly provided by Dr. Hyun-Sung Park (University of Seoul) and cultured in Dulbecco’s modified Eagle’s medium (DMEM, Sigma-Aldrich) supplied with 10% heat-inactivated newborn calf serum (Invitrogen, CA, USA), 100 units/mL penicillin, and 100 µg/mL streptomycin (Cellgro, VA, USA). The cells were maintained in an incubator at 37 °C and 5% CO2. To initiate differentiation, the cells were incubated for additional days after 100% confluence and then further incubated in a medium containing fetal bovine serum (FBS) and a differentiation cocktail (DMI, 1 μM dexamethasone, 0.5 mM 3-isobutyl-1-methylxanthine, and 5 μg/mL insulin) as previously described. In brief, at day 3, the culture medium was replaced with DMEM/10%FBS containing 5 µg/mL insulin. Then, growth medium was changed every 2 days.
Total RNA was extracted using easy-BLUE (iNtRON Biotechnology, Dajeon, Korea) in accordance with the manufacturer’s protocol. cDNA was synthesized from 2 µg of total RNA using TOPscript^TM Drymix Kit (Enzynomics, Dajeon, Korea). qRT-PCR was performed using TB Green ® Premix Ex Taq^TM II (Tli RNAse H Plus) (TaKaRa, Japan) with Applied Biosystems QuantStudio™ 1 Real-Time PCR System (Thermo Fisher Scientific, Waltham, MA, USA). Gene expression data were normalized based on the use of the same amount of total RNA samples. The relative fold change of gene expression was calculated using the ∆Ct method.

ALK(C1156Y) = target: T30, ALK(C1156Y) (Homo sapiens, UniProt Q9UM73, C1156Y); test: KINOMEscan binding; details: read-out: Percent Control
T30 construct: purchased Eurofins DiscoverX KINOMEscan

RET(V804M) = target: T31, RET(V804M) (Homo sapiens, UniProt P07949, V804M); test: KINOMEscan binding; details: read-out: Percent Control
T31 construct: purchased Eurofins DiscoverX KINOMEscan

MLK1 = target: T32, MLK1 (Homo sapiens, UniProt P80192); test: KINOMEscan binding; details: read-out: Percent Control
T32 construct: purchased Eurofins DiscoverX KINOMEscan

PCTK2 = target: T33, PCTK2 (Homo sapiens, UniProt Q00537); test: KINOMEscan binding; details: read-out: Percent Control
T33 construct: purchased Eurofins DiscoverX KINOMEscan

ERK2 = target: T34, ERK2 (Homo sapiens, UniProt P28482); test: KINOMEscan binding; details: read-out: Percent Control
T34 construct: purchased Eurofins DiscoverX KINOMEscan

T24 sequence (Q6XUX3 whole entry): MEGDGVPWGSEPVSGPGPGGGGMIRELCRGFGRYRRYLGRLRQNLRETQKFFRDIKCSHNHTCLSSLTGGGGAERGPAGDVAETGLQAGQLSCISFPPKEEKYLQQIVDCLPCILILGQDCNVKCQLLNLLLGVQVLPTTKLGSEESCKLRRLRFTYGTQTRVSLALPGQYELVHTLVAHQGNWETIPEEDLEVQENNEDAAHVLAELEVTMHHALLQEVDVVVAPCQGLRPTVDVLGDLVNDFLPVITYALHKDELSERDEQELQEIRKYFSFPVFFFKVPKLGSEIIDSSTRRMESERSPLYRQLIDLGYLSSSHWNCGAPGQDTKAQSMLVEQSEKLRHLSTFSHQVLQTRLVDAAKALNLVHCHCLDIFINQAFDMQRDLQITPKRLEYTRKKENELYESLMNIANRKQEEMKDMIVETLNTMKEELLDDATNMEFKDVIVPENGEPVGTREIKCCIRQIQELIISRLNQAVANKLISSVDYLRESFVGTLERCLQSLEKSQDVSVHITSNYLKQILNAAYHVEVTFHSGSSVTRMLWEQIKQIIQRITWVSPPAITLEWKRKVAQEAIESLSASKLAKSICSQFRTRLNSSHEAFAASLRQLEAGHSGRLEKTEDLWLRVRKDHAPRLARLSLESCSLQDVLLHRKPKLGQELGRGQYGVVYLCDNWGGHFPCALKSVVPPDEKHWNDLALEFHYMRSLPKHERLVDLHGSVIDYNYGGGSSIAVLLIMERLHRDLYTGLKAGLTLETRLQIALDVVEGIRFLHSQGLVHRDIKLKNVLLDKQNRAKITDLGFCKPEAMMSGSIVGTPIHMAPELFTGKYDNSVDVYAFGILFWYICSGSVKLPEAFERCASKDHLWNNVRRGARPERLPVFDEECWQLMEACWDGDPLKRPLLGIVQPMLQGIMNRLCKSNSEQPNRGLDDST
T32 sequence (P80192 whole entry): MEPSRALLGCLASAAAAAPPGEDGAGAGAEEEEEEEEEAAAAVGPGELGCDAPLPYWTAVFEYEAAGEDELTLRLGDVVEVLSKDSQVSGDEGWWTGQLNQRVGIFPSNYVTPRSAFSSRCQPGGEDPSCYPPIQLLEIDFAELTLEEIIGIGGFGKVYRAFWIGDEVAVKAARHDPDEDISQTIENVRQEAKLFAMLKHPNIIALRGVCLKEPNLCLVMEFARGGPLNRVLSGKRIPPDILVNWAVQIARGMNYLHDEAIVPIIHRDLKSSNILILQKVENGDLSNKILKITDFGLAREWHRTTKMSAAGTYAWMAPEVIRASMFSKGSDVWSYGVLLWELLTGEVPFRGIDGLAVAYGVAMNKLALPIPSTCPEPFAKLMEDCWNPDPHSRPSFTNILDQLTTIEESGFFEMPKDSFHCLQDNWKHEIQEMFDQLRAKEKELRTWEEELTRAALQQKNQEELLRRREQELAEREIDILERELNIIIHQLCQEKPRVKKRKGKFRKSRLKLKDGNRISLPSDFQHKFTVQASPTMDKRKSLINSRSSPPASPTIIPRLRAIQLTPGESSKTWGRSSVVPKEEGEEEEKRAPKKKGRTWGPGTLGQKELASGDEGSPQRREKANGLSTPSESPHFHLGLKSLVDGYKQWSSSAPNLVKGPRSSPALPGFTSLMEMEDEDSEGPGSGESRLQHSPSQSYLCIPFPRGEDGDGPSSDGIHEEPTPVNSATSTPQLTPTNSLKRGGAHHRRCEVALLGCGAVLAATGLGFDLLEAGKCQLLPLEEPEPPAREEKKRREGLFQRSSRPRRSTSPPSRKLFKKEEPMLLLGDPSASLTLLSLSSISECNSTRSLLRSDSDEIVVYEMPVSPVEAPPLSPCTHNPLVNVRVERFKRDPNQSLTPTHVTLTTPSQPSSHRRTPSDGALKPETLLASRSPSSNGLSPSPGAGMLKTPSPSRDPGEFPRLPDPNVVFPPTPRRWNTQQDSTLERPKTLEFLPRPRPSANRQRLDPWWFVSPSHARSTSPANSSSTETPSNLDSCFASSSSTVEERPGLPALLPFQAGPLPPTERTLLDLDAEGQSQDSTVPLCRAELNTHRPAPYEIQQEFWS
T11 sequence (P29323 19-1055): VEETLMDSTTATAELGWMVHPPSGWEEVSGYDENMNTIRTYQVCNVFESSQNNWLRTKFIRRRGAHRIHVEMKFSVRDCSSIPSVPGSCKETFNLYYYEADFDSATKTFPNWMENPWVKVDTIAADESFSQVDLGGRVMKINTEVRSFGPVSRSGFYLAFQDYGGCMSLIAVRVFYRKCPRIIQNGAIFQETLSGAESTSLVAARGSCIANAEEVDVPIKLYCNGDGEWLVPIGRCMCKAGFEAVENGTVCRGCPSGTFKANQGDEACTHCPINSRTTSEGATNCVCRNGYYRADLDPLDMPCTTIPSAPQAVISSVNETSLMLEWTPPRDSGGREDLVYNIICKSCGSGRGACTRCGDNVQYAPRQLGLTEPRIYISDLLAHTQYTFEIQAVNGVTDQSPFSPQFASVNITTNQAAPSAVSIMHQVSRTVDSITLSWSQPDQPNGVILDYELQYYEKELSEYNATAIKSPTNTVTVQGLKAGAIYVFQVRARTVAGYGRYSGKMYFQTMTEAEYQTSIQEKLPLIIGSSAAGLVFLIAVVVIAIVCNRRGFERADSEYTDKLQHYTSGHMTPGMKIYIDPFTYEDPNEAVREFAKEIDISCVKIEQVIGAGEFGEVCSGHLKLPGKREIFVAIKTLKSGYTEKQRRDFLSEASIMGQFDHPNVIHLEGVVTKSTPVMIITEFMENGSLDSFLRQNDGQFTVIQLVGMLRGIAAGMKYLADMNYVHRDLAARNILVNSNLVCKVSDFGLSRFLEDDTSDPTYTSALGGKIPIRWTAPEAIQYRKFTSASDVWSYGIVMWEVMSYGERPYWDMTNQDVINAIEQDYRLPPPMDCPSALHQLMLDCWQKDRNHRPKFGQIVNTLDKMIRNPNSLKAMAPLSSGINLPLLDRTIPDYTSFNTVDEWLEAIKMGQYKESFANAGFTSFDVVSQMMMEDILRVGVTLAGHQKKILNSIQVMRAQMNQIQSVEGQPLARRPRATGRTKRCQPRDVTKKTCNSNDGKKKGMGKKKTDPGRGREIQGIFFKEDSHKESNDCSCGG
T3 sequence (P10721 26-976): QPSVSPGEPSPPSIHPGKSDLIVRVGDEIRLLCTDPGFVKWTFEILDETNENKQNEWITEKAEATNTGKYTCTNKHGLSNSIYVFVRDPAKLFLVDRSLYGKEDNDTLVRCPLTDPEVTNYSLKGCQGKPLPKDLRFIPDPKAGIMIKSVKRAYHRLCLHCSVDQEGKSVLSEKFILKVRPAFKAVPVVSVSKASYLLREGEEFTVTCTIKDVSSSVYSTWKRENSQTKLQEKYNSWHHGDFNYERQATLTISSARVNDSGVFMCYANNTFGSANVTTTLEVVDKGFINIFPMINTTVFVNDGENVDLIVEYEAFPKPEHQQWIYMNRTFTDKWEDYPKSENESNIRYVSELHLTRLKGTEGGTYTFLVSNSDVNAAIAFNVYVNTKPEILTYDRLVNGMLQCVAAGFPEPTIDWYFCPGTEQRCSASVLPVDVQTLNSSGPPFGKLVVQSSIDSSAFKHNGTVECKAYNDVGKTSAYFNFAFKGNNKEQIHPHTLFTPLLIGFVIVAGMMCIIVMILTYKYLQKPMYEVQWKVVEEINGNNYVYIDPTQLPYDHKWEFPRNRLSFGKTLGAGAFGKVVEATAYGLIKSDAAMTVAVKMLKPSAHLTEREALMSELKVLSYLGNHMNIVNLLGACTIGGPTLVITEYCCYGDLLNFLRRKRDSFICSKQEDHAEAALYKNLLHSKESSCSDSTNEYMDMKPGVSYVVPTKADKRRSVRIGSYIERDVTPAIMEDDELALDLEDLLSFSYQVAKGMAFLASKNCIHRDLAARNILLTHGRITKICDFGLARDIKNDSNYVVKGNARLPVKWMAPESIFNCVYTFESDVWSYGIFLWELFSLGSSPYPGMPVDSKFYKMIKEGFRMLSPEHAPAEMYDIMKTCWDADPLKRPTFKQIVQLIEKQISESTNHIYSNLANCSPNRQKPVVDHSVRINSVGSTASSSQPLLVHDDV
T15 sequence (P36894 24-532): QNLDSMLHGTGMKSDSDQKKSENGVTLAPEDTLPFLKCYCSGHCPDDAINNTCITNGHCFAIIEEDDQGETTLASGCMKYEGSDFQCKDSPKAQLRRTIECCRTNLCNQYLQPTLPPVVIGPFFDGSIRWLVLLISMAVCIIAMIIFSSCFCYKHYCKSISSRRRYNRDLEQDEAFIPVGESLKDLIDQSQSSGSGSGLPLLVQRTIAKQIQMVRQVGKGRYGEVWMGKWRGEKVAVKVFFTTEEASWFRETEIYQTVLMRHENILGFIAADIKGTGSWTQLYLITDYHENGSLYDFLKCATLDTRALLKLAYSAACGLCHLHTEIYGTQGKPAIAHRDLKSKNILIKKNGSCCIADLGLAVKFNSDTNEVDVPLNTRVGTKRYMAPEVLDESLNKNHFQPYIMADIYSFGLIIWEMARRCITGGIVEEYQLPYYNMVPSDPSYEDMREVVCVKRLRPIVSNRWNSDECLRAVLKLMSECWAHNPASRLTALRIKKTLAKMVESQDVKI
T12 sequence (P09769 whole entry): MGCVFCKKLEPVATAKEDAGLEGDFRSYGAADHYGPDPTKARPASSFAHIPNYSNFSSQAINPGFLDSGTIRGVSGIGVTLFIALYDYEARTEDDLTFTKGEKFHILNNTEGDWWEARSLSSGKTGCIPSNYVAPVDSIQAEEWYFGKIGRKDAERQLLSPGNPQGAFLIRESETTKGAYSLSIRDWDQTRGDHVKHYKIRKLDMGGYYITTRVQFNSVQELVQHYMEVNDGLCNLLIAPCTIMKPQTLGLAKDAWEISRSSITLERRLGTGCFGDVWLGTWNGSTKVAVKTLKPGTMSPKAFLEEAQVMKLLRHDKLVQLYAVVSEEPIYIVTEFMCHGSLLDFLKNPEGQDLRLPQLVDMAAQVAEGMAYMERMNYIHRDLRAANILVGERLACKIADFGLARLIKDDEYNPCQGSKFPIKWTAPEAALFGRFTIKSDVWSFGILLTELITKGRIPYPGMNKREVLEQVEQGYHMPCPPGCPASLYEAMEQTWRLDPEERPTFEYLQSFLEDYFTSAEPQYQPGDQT

With `CC(C)NC(=O)COc1cccc(-c2nc(Nc3ccc4[nH]ncc4c3)c3ccccc3n2)c1` [KD025, 2-(3-(4-((1H-indazol-5-yl)amino)quinazolin-2-yl)phenoxy)-N-isopropylacetamide] the remaining binding at 10 µM [1] was 49%, the remaining binding at 10 µM (PRKCI) was 76% and the remaining binding at 10 µM (KIT-autoinhibited) was 78%. It also gave a remaining binding at 10 µM (ACVR2A) of 99%, a remaining binding at 10 µM (NIM1) of 100% and a remaining binding at 10 µM (MTOR) of 92%. It also gave a remaining binding at 10 µM (PAK3) of 77%, a remaining binding at 10 µM (EPHA1) of 88% and a remaining binding at 10 µM (WNK3) of 82%. For the same compound, the remaining binding at 10 µM (YSK1) was 70%, the remaining binding at 10 µM (EPHB2) was 96% and the remaining binding at 10 µM (FGR) was 82%. The remaining binding at 10 µM (PIK4CB) was 92%, the remaining binding at 10 µM (AMPK-alpha1) was 76% and the remaining binding at 10 µM (BMPR1A) was 89%. For the same compound, the remaining binding at 10 µM (ULK3) was 90%, the remaining binding at 10 µM (VPS34) was 27% and the remaining binding at 10 µM (CASK) was 70%. It also gave a remaining binding at 10 µM (AURKB) of 61%, a remaining binding at 10 µM (KIT(V559D)) of 72% and a remaining binding at 10 µM (HPK1) of 76%. The remaining binding at 10 µM (HIPK3) was 100%, the remaining binding at 10 µM (DMPK2) was 3.9% and the remaining binding at 10 µM (RIPK5) was 64%. The remaining binding at 10 µM (BRAF) was 85%, the remaining binding at 10 µM (CAMKK2) was 100% and the remaining binding at 10 µM (PLK3) was 72%. The remaining binding at 10 µM (PHKG1) was 87%, the remaining binding at 10 µM (LATS2) was 48% and the “expression of Pparg and Cebpa genes” value [2] was “suppressed”. The remaining binding at 10 µM (ALK(C1156Y)) was 65%, the remaining binding at 10 µM (RET(V804M)) was 59% and the remaining binding at 10 µM (MLK1) was 87%. For the same compound, the remaining binding at 10 µM (PCTK2) was 94% and the remaining binding at 10 µM (ERK2) was 79%.
